These results are taken from patent US7501413B2, “Dicarboxamide derivatives” (Hoffmann-La Roche Inc., priority 2004, dated 2009).

T1 sequence (P00742 235-488 limits assumed): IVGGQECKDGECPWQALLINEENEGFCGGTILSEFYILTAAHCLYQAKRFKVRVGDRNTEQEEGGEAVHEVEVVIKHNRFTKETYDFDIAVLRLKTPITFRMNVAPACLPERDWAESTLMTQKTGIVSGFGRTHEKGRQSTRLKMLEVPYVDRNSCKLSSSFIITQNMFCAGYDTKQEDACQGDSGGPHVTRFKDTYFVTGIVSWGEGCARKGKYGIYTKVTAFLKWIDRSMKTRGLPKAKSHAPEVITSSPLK
T1 sequence (P00742 41-179 partner limits assumed): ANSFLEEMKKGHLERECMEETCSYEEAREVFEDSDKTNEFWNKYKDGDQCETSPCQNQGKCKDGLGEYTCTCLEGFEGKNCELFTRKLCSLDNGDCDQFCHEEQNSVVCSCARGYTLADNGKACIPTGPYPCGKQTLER

This assay has as its target T1, human factor Xa (Homo sapiens, UniProt P00742).
T1 construct: purchased Enzyme Research Laboratories
Kind of assay: Factor Xa chromogenic peptide substrate assay (S-2222). The assay is classed as biochemical. As to conditions: human factor Xa 3 nM, chromogenic substrate S-2222 at 200 nM, HNPT buffer pH 7.8, room temperature; apparent Ki calculated from IC50 (Cheng-Prusoff), Km 613 μM. On the procedure: Factor Xa activity was measured spectrophotometrically in microtiter plates in a final volume of 150 μl using the following conditions: Inhibition of human factor Xa (Enzyme Research Laboratories) was tested at an enzyme concentration of 3 nM using the chromogenic substrate S-2222 (Chromogenix AB, Mölndal, Sweden) at […]. The reaction kinetics of the enzyme and the substrate were linear with both time and the enzyme concentration. The inhibitors were dissolved in DMSO and tested at various concentrations up to 100 μM. The inhibitors were diluted using HNPT buffer consisting of HEPES 100 mM, NaCl 140 mM, PEG 6000 0.1% and Tween 80 0.02%, pH 7.8. The cleavage of S-2222 by human factor Xa was followed at 405 nm for 5 minutes at room temperature. The velocity of the reaction was determined by the autoreader from the slope of the linear regression fit to 7 time points (1 minute). The initial velocity for each inhibitor concentration was determined by the slope of at least 4 time points in the linear phase by a linear regression fit (mOD/min^2). Apparent dissociation constants Ki were calculated according to Cheng and Prusoff [Cheng, Y. C.; Prusoff, W. H. Relationship between the inhibition constant (Ks) and the concentration of the inhibitor that causes 50 percent inhibition (IC50) of an enzyme reaction. Biochem. Pharmacol. 1973, 22, 3099-3108.] based on the IC50 and the respective Km, determined previously (Ki=IC50/(1+S/Km)). The Km for the substrate used was determined under the conditions of the test with at least 5 substrate concentrations ranging from 0.5 to 15 times Km. [Lottenberg R, Hall J A, Blinder M, Binder E P, Jackson C M., The action of thrombin on peptide p-nitroanilide substrates. Substrate selectivity and examination of hydrolysis under different reaction conditions. Biochim Biophys Acta. 1983 Feb. 15; 742(3):539-57]. according to Eadie [Eadie G. S. The inhibition of cholinesterase by physostigmine and prostigmine. J. Biol. Chem. 1942, 146, 85-93.]. The Km for S-2222 amounted to 613 μM.
In the case of `COC1(CO)C[C@H](C(=O)Nc2ccc(Cl)cc2)[C@@H](C(=O)Nc2ccc(-n3ccccc3=O)cc2F)C1` (single isomer, unassigned) [Example 47, (1S,2S,4S)- or (1S,2S,4R)-4-Hydroxymethyl-4-methoxy-cyclopentane-1,2-dicarboxylic acid 1-[(4-chloro-phenyl)-amide]2-{[2-fluoro-4-(2-oxo-2H-pyridin-1-yl)-phenyl]-amide}], the Ki was 0.009 µM. Regarding `O=C(Nc1ccc(Cl)cc1)[C@H]1CC2(CC2)C[C@@H]1C(=O)Nc1ccc(-n2ccccc2=O)cc1F` [Example 48, (5S,6S)-Spiro[2.4]heptane-5,6-dicarboxylic acid (4-chloro-phenyl)-amide [2-fluoro-4-(2-oxo-2H-pyridin-1-yl)-phenyl]-amide], the Ki is 0.008 µM. Take `O=C(Nc1ccc(Cl)cc1)[C@H]1C[C@@H](O)C[C@H]1C(=O)Nc1ccc(-n2ccccc2=O)cc1F` [Example 52, (1S,2S,4S)-4-Hydroxy-cyclopentane-1,2-dicarboxylic acid 1-[(4-chloro-phenyl)-amide]2-{[2-fluoro-4-(2-oxo-2H-pyridin-1-yl)-phenyl]-amide}]: the Ki was 0.013 µM.
